{"source": "patent US11375708B2", "about": "“Methods and apparatus for management of mosquito populations with habitat sharing heterospecific insects carrying insect growth regulators” (Rutgers, The State University of New Jersey, priority 2015, dated 2022)", "system": "Aedes albopictus", "assay": "Room (30 m^3) release of 20 treated Chironomus against 10 sentinel cups, mosquito pupal mortality", "type": "in vivo", "conditions": "20 treated Chironomus released in 30 m^3 room, 2 days (48 hour exposure), 10 cups each with 250 ml oak infusion", "description": "FIG. 2. Mosquito pupal mortality achieved by releasing oil treated 20 Chironomus adults in a 30 m^3 room for 2 days against 10 sentinel cups. The average pupal mortality of Aedes albopictus was 88±3.5%.\nChironomus females don't need blood feeding and the larvae are easy to culture. […] The larvae developed in cryptic sentinel cups indicated the treated female has visited the cup and laid eggs. In the same cup, pupal mortality of Aedes albpictus indicated the pyriproxyfen transfer (FIG. 5). We further challenged the technology in a meshed tunnel (50×3×2 m) setup in the field with 10 cryptic sentinel cups inside (FIG. 7) by releasing 50 treated C. decorus females for 5 days. […] The backyard experiment was conducted by treating 800 chironomid adults with oil formulation (20% a.i) first and followed with powder formulation (60% a.i) at a separate location to avoid contamination. In this experiment, the active ingredient (a.i.) was pyriproxyfen. In order to avoid any dew effect, release time was in the afternoon between 2 to 5 pm. […]\nAdults (males and females) of C. decorus (0 to 2 days old) will be collected and stored in a cage constructed with metal window screen. […] The cage with contaminated Chironomus then will be removed from the bottom of the chamber and ready for release in cases where only oil treatment is desired. […]"}
{"smiles": "CC(COc1ccc(Oc2ccccc2)cc1)Oc1ccccn1", "note": "(stereo not shown) [pyriproxyfen]", "values": [{"measurement": "average pupal mortality of Aedes albopictus", "value": "88.5±3.5", "unit": "%"}]}
